{"source": "patent US20230310432A1", "about": "(JULIUS-MAXIMILIANS-UNIVERSITÄT WÜRZBURG, priority 2017, published 2023)", "format_in_all_cases": "cell-based, human", "key": {"[1]": {"tested_on": "CD4+ T cells expressing a CD19 CAR with 4-1BB costimulation", "assay": "Multiplex cytokine analysis, co-culture with K562/CD19", "conditions": "dasatinib ≥25 nM; 20 h; compared to non-dasatinib treated CAR-T cells", "procedure": "(§3) A multiplex cytokine analysis was performed in supernatant removed from the co-culture."}, "[2]": {"tested_on": "CD4+ T cells expressing a SLAMF7 CAR with CD28 costimulatory domain", "assay": "Cytokine ELISA, co-culture with K562/SLAMF7", "conditions": "dasatinib 20 nM; 20 h", "method": "(§1) Cytokine secretion: 5×10^4 T-cells were plated in duplicate or triplicate wells with target cells at an E:T ratio of 4:1 (K562/ROR1, K562/CD19, RCH-ACV), and IFN-γ and IL-2 were measured by ELISA, or cytokine panels were measured by multiplex cytokine immunoassay (Luminex) in supernatant removed after 20-h incubation. Specific cytokine production was calculated by subtracting the amount of cytokines released by unstimulated CAR-T cells from the amount of cytokines released after antigen-specific stimulation. The remaining cytokine secretion in % as shown in the diagrams is normalized to CAR-T cells in the absence of dasatinib-treatment (100%).\n(§2) The inventors prepared SLAMF7-specific CD8^+ and CD4^+ CAR-T cell lines from n=2 healthy donors. In each of the T-cell lines, the inventors enriched CAR-expressing T cells to >90% purity using the EGFRt-transduction marker. […] CAR-T cells were co-cultured with K562 that the inventors had transduced with SLAMF7. Dasatinib was added to the assay medium at the beginning of the co-culture assay. ELISA was performed to detect IFN-γ and IL-2 in supernatant removed from the co-culture."}, "[3]": {"tested_on": "CD8+ T cells expressing a SLAMF7 CAR with 4-1BB costimulation", "assay": "Cytokine ELISA, co-culture with K562/SLAMF7", "conditions": "20 h", "method": "as §1, §2"}, "[4]": {"tested_on": "CD4+ T cells expressing a CD19 CAR with CD28 costimulatory domain", "assay": "Multiplex cytokine analysis, co-culture with K562/CD19", "conditions": "dasatinib ≥25 nM; 20 h; compared to non-dasatinib treated CAR-T cells", "procedure": "as §3"}, "[5]": {"tested_on": "CD8+ T cells expressing a CD19 CAR with CD28 costimulatory domain", "assay": "CFSE proliferation assay, co-culture with K562/CD19", "conditions": "dasatinib ≥50 nM; 72 h", "method": "Proliferation: T cells were labeled with 0.2 μM carboxyfluorescein succinimidyl ester (CFSE, Invitrogen), washed and plated in duplicate or triplicate wells with irradiated (80 Gy) stimulator cells at an E:T ratio of 4:1 (K562/ROR1, K562/CD19 or RCH-ACV). No exogenous cytokines were added to the culture medium. After a 72-hour incubation, cells were labeled with anti-CD3 mAb, and analyzed by flow cytometry to assess cell division of T cells.\nCAR-T cells were labeled with CFSE and co-cultured with K562 that the inventors had transduced with either CD19 (for testing CD19 CAR-T cells) or ROR1 (for testing ROR1 CAR-T cells). Dasatinib was added to the assay medium at the beginning of the co-culture assay. Flow cytometric analyses were performed to determine the proliferation of T cells at the end of the co-culture assay."}}}
{"smiles": "Cc1nc(Nc2ncc(C(=O)Nc3c(C)cccc3Cl)s2)cc(N2CCN(CCO)CC2)n1", "note": "[dasatinib]", "values": [{"measurement": "reduction of production and secretion of GM-CSF, IFN-γ, IL-2, IL-4, IL-5, IL-6, IL-8", "setting": "[1]", "result": "> 95", "unit": "%"}, {"measurement": "residual IFN-γ", "setting": "[2]", "result": "less than 1.2%"}, {"measurement": "residual specific IFN-γ production", "setting": "[3]; dasatinib 20 nM", "result": "less than 15%"}, {"measurement": "residual specific IFN-γ production", "setting": "[3]; dasatinib ≥40 nM", "result": "less than 0.8%"}, {"measurement": "reduction of production and secretion of GM-CSF, IFN-γ, IL-2, IL-4, IL-5, IL-6, IL-8", "setting": "[4]", "result": "> 95", "unit": "%"}, {"measurement": "residual proliferation compared to non-dasatinib treated CAR-T cells", "setting": "[5]", "result": "less than 7%"}]}
